# Values of other authors in US20150216798A1, “NOVEL ORALLY ADMINISTERED PHARMACEUTICAL FORMULATIONS” (Sanovel Ilac Sanayi Ve Ticaret Anonim Sirketi, priority 2012, published 2015).
# Settings: after oral administration
compound,measurement,value
"CN1CC(=O)N2[C@H](c3ccc4c(c3)OCO4)c3[nH]c4ccccc4c3C[C@@H]2C1=O [Tadalafil, (6R-trans)-6-(1,3-benzodioxol-5-yl)-2,3,6,7,12,12a-hexahydro-2-methyl-pyrazine [1′,2′:1,6]pyrido[3,4-b]indol-1,4-dion]",duration of effect,≤ 36 h
same,onset of action,15 min
